Common to all, as to test: NCI-60 cell line screen, 48 h
Test [1] has as its system A498.
Test [2] relates to HCC 2998.
The test system of test [3] is ACHN.
For test [4], the system named is EKVX.
Test [5] concerns UO-31.
Test [6] deals with HOP-92.
For test [7], the system named is LOX IMVI.
In test [8] the test system is NCI-H460.
In test [9] the test system is KM12.
Test [10] relates to COLO 205.
Test [11] has as its system 786-0.
Test [12] relates to Malme-3M.
Test [13] has as its system SF-539.
Test [14] relates to OVCAR-8.
Test [15] deals with T47D.
Test [16] deals with OVCAR-4.
Test [17] relates to MDA-MB-435.
Test [18] relates to MOLT-4.
Test [19] has as its system NCI-H23.
In test [20] the test system is NCI-H522.

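Each compound was tested at five concentrations against cells in 96-well plates for 48 hours. The concentration for 50% growth inhibition is given as GI50.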 Activity calls are given as the source filed them. Rule as the data show it: active = GI50 up to about 1.1 µM and inactive = higher.

For the molecule `COc1cc(CNC(=O)CCCCCCCC/C=C/Br)ccc1O`, the GI50 in test [1], in test [2], in test [3], in test [4], in test [5] and in test [6] was > 10 µM (inactive) throughout. Moreover, the GI50 in [7], in [8], in test [9], in test [10], in test [11] and in [12] was > 10 µM (inactive) in each case. The GI50 in test [13], in test [14], in [15], in [16], in test [17] and in [18] was > 10 µM (inactive) each time. The GI50 in test [19] and in [20] was > 10 µM (inactive) throughout.

Consider `c1ccc2c(c1)nc1n2CNCC1`, for which the GI50 in [1] was > 100 µM (inactive); in test [2], > 100 µM (inactive); in test [3], > 100 µM (inactive); in test [4], > 100 µM (inactive); in test [5], 79.3 µM (inactive); in test [6], > 100 µM (inactive). In addition, the GI50 in test [7] was 24.2 µM (inactive); in test [8], > 100 µM (inactive); in test [9] it was > 100 µM (inactive); in test [10], > 100 µM (inactive); in [11], > 100 µM (inactive); in test [12], 63.7 µM (inactive). Moreover, the GI50 was > 100 µM (inactive) in [13]; 58.5 µM (inactive) in [14]; 37.2 µM (inactive) in [15]; > 100 µM (inactive) in [16]; > 100 µM (inactive) in test [17]; 43.3 µM (inactive) in test [18]. Besides, the GI50 in test [19] is > 100 µM (inactive); in test [20] it was 43.1 µM (inactive).

For the molecule `C/C(=N/NC(=S)Nc1ccccc1C)c1ccccn1`, the GI50 was 1.67 µM (inactive) in test [1]; 6.27 µM (inactive) in test [2]; 0.0562 µM (active) in [3]; 0.167 µM (active) in test [4]; 0.43 µM (active) in [5]; 1.09 µM (active) in test [6]. Further, the GI50 in test [7] was < 0.0149 µM (active); in test [8], 0.0818 µM (active); in test [9], 0.173 µM (active); in [10], < 0.0196 µM (active); in test [11] it was 0.0627 µM (active); in test [12], 1.6 µM (inactive). Further, the GI50 was 1.01 µM (active) in test [13]; 0.107 µM (active) in test [14]; < 0.0475 µM (active) in [15]; 0.279 µM (active) in test [16]; 0.632 µM (active) in test [17]; 0.0175 µM (active) in test [18]. Also, the GI50 was < 0.0189 µM (active) in [19] and 0.583 µM (active) in test [20].

Regarding `C(=N/NC1=NCCN1)/c1c2ccccc2c(/C=N\NC2=NCCN2)c2ccccc12`, the GI50 was 0.324 µM (active) in test [1]; 0.14 µM (active) in [2]; 0.221 µM (active) in test [3]; 0.149 µM (active) in [4]; 9.44 µM (inactive) in [5]; 0.0731 µM (active) in test [6]. Besides, the GI50 in test [7] was 0.0931 µM (active); in test [8] it was 0.0279 µM (active); in [9] it was 0.0885 µM (active); in [10], 0.054 µM (active); in test [11], 0.0991 µM (active); in test [12], 0.16 µM (active). Also, the GI50 in [13] is 0.1 µM (active); in [14] it was 0.252 µM (active); in test [15], 0.11 µM (active); in [16], 0.302 µM (active); in [17], 0.0376 µM (active); in [18] it was 0.0376 µM (active). Moreover, the GI50 is 0.129 µM (active) in test [19] and 0.0698 µM (active) in test [20].

In the case of `CCCCCCCCCc1cc(O)c(O)cc1CCCCCCCCC`, the GI50 in test [1], in [2], in test [3], in test [4], in [5] and in [6] was > 10 µM (inactive) in each case. For the same molecule, the GI50 in test [7], in test [8], in test [9], in [10], in test [11] and in test [12] was > 10 µM (inactive) throughout. For the same molecule, the GI50 in [13], in [14], in test [15], in [16], in test [17] and in [18] was > 10 µM (inactive) in each case. Also, the GI50 in [19] and in test [20] was > 10 µM (inactive) in each case.

For `O=C1/C(=C\c2cccc(Oc3ccccc3)c2)S(=O)(=O)C(c2ccccc2)N1c1cc(Cl)ccc1Cl` (stereo not given), the GI50 is 39.2 µM (inactive) in test [1]; 21.7 µM (inactive) in [2]; 18.8 µM (inactive) in [3]; 27.8 µM (inactive) in test [4]; 16.8 µM (inactive) in [5]; 16.9 µM (inactive) in test [6]. For the same molecule, the GI50 in test [7] is 5.25 µM (inactive); in test [8], 28.1 µM (inactive); in [9], 22.9 µM (inactive); in [10], 22.2 µM (inactive); in test [11] it was 16.1 µM (inactive); in test [12], 20.1 µM (inactive). Moreover, the GI50 in [13] is 5.43 µM (inactive); in [14], 5.06 µM (inactive); in test [15] it was 20.3 µM (inactive); in test [16], 23.1 µM (inactive); in test [17] it was 8.13 µM (inactive); in [18] it was 3.84 µM (inactive). Also, the values for the GI50 in test [19] and in [20] were 19.4 µM (inactive) and 18.3 µM (inactive), respectively.

With `c1ccc(-c2c3c(nc4c2CC[C@H]4NC2=NCCN2)[C@@H](NC2=NCCN2)CC3)cc1`, the GI50 in [1] was > 100 µM (inactive); in test [2] it was 27 µM (inactive); in test [3] it was > 100 µM (inactive); in test [4] it was > 100 µM (inactive); in [5], > 100 µM (inactive); in [6], 20.7 µM (inactive). Also, the GI50 was 59 µM (inactive) in test [7]; 29.2 µM (inactive) in test [8]; > 100 µM (inactive) in test [9]; > 100 µM (inactive) in test [10]; > 100 µM (inactive) in test [11]; > 100 µM (inactive) in [12]. In addition, the GI50 in [13] was 27.4 µM (inactive); in [14], > 100 µM (inactive); in test [15] it was > 100 µM (inactive); in test [16], > 100 µM (inactive); in test [17], > 100 µM (inactive); in test [18], 56.2 µM (inactive). In addition, the GI50 in [19] and in test [20] was > 100 µM (inactive) throughout.

Consider `[O-]/[N+](=C\c1ccccc1OC(=S)S)c1ccc(Cl)cc1`, for which the GI50 in [1] was 59.8 µM (inactive); in test [2], 45.3 µM (inactive); in [3], 20.6 µM (inactive); in test [4] it was 25.7 µM (inactive); in test [5], 19.8 µM (inactive); in [6], 2.87 µM (inactive). Also, the GI50 in [7] is 14.9 µM (inactive); in test [8] it was 0.292 µM (active); in [9], 26.7 µM (inactive); in test [10], 3.92 µM (inactive); in test [11], 14.6 µM (inactive); in test [12], > 100 µM (inactive). Further, the GI50 in [13] was 35.6 µM (inactive); in test [14], 8.24 µM (inactive); in test [15], 6.01 µM (inactive); in [16] it was 13.9 µM (inactive); in [17] it was 15.7 µM (inactive); in test [18], 5.46 µM (inactive). Besides, the GI50 in [19] is 23.8 µM (inactive); in [20], 16.8 µM (inactive).

Regarding `N#C[BH2-][n+]1cn(C2CC(OP(=O)(O)OCC3OC(n4ccc(N)nc4=O)CC3O)C(CO)O2)c2nc(N)[nH]c(=O)c21` (stereo not given), the GI50 in [1], in test [2], in [3], in [4], in test [5] and in test [6] was > 100 µM (inactive) throughout. For the same molecule, the GI50 in test [7], in test [8], in test [9], in test [10], in [11] and in [12] was > 100 µM (inactive) in each case. Further, the GI50 in test [13], in [14], in [15], in test [16], in test [17] and in [18] was > 100 µM (inactive) in each case. For the same molecule, the GI50 in test [19] and in test [20] was > 100 µM (inactive) throughout.

For `COc1ccc2[nH]c3c(C)c4c(c(C)c3c2c1)CN(C)C=C4`, the GI50 was 1.36 µM (inactive) in test [1]; 2.71 µM (inactive) in test [2]; 13.2 µM (inactive) in [3]; 2.49 µM (inactive) in test [4]; 24.5 µM (inactive) in test [5]; 2.79 µM (inactive) in test [6]. Also, the GI50 in test [7] was 9.77 µM (inactive); in [8], 1.32 µM (inactive); in test [9] it was 1.35 µM (inactive); in test [10] it was 1.29 µM (inactive); in test [11], 0.191 µM (active); in test [12], 1.21 µM (inactive). In addition, the GI50 in [13] is 0.366 µM (active); in test [14], 0.309 µM (active); in test [15], 2.07 µM (inactive); in test [16], 3.95 µM (inactive); in test [17] it was 21.2 µM (inactive); in test [18] it was 0.65 µM (active). The GI50 was 0.424 µM (active) in test [19] and 1.2 µM (inactive) in test [20].

The values above are taken from ChEMBL document CHEMBL1201862, “PubChem BioAssay data set” (2004).
